Laboratory results: PubChem BioAssay AID1996
In brackets after ≈: the same amount, converted by molar mass.

Settings: buffer; pH 7.4; 200.0 µM

Going from `COC(=O)c1nn(-c2ccc(C)cc2)ccc1=O` to `Cc1ccc(Nc2ccc([N+](=O)[O-])ccc2=O)cc1`, the solubility kinetic falls from greater than 36.6 µg/mL to less than 0.3 µg/mL.

Going from `COc1ccc(OC)c(N=Cc2c(O)[nH]c(=O)[nH]c2=O)c1` to `COc1ccc(S(=O)(=O)NC2CCc3ccccc32)cc1OC` (stereo not given), the solubility kinetic rises from 7.1 µg/mL (≈ 24.4 µM) to greater than 50 µg/mL.

First: Cc1ccc(OCC(=O)N2CCc3ccccc3C2)c([N+](=O)[O-])n1
Second: O=C(c1cc(Cl)ccc1Cl)N1CCc2ccccc21
The solubility kinetic of the first is higher: greater than 49.1 µg/mL for the first, 12.1 µg/mL (≈ 41.4 µM) for the second.

Compared with `N#Cc1ccccc1NC(=O)COc1ccccc1C(=O)Nc1ccccc1`, `CC(=O)c1cccc(NC(=O)CNC(=O)Cc2ccccc2)c1` is 6.6-fold higher in solubility kinetic: 6.6 µg/mL (≈ 17.8 µM) for the first, 43.7 µg/mL (≈ 141 µM) for the second.

Going from `COc1ccccc1NC(=O)NCC1(N(C)C)CCCCC1` to `O=C(Nc1ccccc1N1CCCCC1)c1cccc([N+](=O)[O-])c1`, the solubility kinetic falls from greater than 45.8 µg/mL to 0.7 µg/mL (≈ 2.15 µM).

Compared with `Cc1c(NC(=O)c2cc(S(=O)(=O)N3CCCCC3)ccc2Cl)c(=O)n(-c2ccccc2)n1C`, `O=C1c2ccccc2-c2cccc(C(=O)N3CCCCC3)c21` is lower in solubility kinetic: greater than 73.3 µg/mL for the first, 36.7 µg/mL (≈ 126 µM) for the second.

Compared with `Cc1cc(C(=O)Nc2ccc(N3CCOCC3)c(Cl)c2)c(C)o1`, `O=C(c1cc(COc2ccc(F)cc2F)on1)N1CCOCC1` is higher in solubility kinetic: 45.6 µg/mL (≈ 136 µM) for the first, greater than 48.6 µg/mL for the second.

First: Nc1ncnc(Sc2ncccn2)c1[N+](=O)[O-]
Second: O=C(COC(=O)c1cccc([N+](=O)[O-])c1)Nc1ncc(Br)s1
The solubility kinetic of the first is higher: greater than 37.5 µg/mL for the first, 3.5 µg/mL (≈ 9.06 µM) for the second.

Going from `Fc1ccc(F)c(CNc2ncnc3cc(Cl)ccc23)c1` to `COc1ccc(OCc2nc(-c3ccc(F)c(F)c3)cs2)cc1`, the solubility kinetic falls from 1.3 µg/mL (≈ 4.25 µM) to less than 0.7 µg/mL.

First: Cc1ccc(S(=O)(=O)/C(=C\N(C)C)c2cnc(Cl)s2)cc1
Second: Cc1ccc(CONC(=O)c2ccc([N+](=O)[O-])cc2)cc1
The solubility kinetic of the first is higher: greater than 51.4 µg/mL for the first, 2.1 µg/mL (≈ 7.34 µM) for the second.

`O=C(COC(=O)COc1ccccc1)Nc1ccc(Cl)cn1` and `CC(NC(=O)COC(=O)c1cccs1)c1ccccc1` (stereo not given) are within 1.5-fold of each other in solubility kinetic: 13.3 µg/mL (≈ 41.5 µM) for the first, 11.9 µg/mL (≈ 41.1 µM) for the second.

`Cc1cnc(C(=O)NC(Cc2ccccc2)c2ccccc2)cn1` (stereo not given) and `Cn1cc(/C=C/C(=O)c2ccccc2)c2ccccc21` are within 1.5-fold of each other in solubility kinetic: 0.9 µg/mL (≈ 2.84 µM) for the first, 0.7 µg/mL (≈ 2.68 µM) for the second.

Going from `Cc1[nH]c2ccc(C(C)C)cc2c1CC(=O)O` to `Cc1ccc(SC(C)C(=O)NC(N)=O)c(C)c1` (stereo not given), the solubility kinetic falls from greater than 34.7 µg/mL to 7.7 µg/mL (≈ 30.5 µM).

Compared with `C=CCNC(=O)c1c(O)c2cccc3c2n(c1=O)CCC3`, `COc1ccc(/C=C2\N=C3CCCN3C2=O)cc1` is higher in solubility kinetic: less than 0.3 µg/mL for the first, greater than 36.3 µg/mL for the second.

First: COc1ccc(C2C(C#N)=C(N)Oc3cc(O)ccc32)cc1Cl (stereo not given)
Second: COc1ccccc1C1CCN(Cc2ccc(Cl)c(Cl)c2)CC1
The solubility kinetic of the first is higher: 43.5 µg/mL (≈ 132 µM) for the first, less than 0.8 µg/mL for the second.

`COc1ccc(S(=O)(=O)NC(C)C(=O)N2CCCC2)cc1Cl` (stereo not given) and `COc1ccc(Cl)cc1C(=O)NN=C1CCCC1` cannot be ordered by solubility kinetic: 47 µg/mL (≈ 136 µM) for the first, greater than 40 µg/mL for the second.

Compared with `Cc1nccn1CC(=O)N/N=C/c1ccccc1O`, `CC(C)C(C)NC(=O)Cn1cnc2c(oc3ccccc32)c1=O` (stereo not given) is lower in solubility kinetic: greater than 38.7 µg/mL for the first, 17.3 µg/mL (≈ 55.2 µM) for the second.

Going from `Cc1ccccc1OCCC(=O)N1CCN(S(=O)(=O)c2ccccc2F)CC1` to `COC(=O)c1ccc(S(=O)(=O)N2CCN(C)CC2)n1C`, the solubility kinetic rises from 38.5 µg/mL (≈ 94.7 µM) to greater than 45.2 µg/mL.

Compared with `CC1CCN(C(=O)CSc2nc3ccccc3c(=O)[nH]2)CC1`, `CCN1CCN(C/C(C)=C/c2ccccc2)CC1` is lower in solubility kinetic: greater than 47.6 µg/mL for the first, 27.2 µg/mL (≈ 111 µM) for the second.

Going from `CCc1ccc(NC(=O)COC(=O)c2cccs2)cc1` to `COCC(=O)Nc1ccc2c(c1)OCC(=O)N2Cc1ccc(C)cc1`, the solubility kinetic rises from 2.8 µg/mL (≈ 9.68 µM) to 20.9 µg/mL (≈ 61.4 µM) (7.5-fold).

First: CC(=O)N1c2ccccc2CCc2ccc(N)cc21.Cl
Second: CC(=O)C1=C(c2ccccc2)NC(=O)NC1c1cccs1 (stereo not given)
The solubility kinetic of the first is higher: greater than 43.3 µg/mL for the first, 28.2 µg/mL (≈ 94.5 µM) for the second.

Going from `Cn1c(/C(C#N)=C(\O)c2ccc([N+](=O)[O-])s2)nc2ccccc21` to `N#Cc1c(N)n(-c2ccc(N)cc2)c2nc3ccccc3nc12`, the solubility kinetic rises from less than 0.2 µg/mL to 1.2 µg/mL (≈ 4 µM).

Going from `N/C(=N\OC(=O)Cc1cccs1)c1ccc(Cl)cc1` to `O=C(COC(=O)/C=C/c1ccccc1)NCc1cccs1`, the solubility kinetic rises from 5.8 µg/mL (≈ 19.7 µM) to 17.7 µg/mL (≈ 58.7 µM) (3.1-fold).

Compared with `COc1ccccc1C(c1c(N)n(C)c(=O)n(C)c1=O)C(C)[N+](=O)[O-]` (stereo not given), `COc1ccc(NC(=O)Nc2ccc([N+](=O)[O-])cc2)cn1` is lower in solubility kinetic: greater than 52.3 µg/mL for the first, 0.9 µg/mL (≈ 3.12 µM) for the second.

First: O=S(=O)(N=C(NS(=O)(=O)c1ccc(Cl)cc1)c1ccccc1)c1ccc(Cl)cc1
Second: O=S(=O)(O)c1cccnc1SCc1ccccc1
The solubility kinetic of the first is higher: greater than 70.4 µg/mL for the first, 41 µg/mL (≈ 146 µM) for the second.

Going from `CCOc1ccc(NC(=O)CNC(=O)c2ccc(OC)cc2)cc1` to `CCOc1ccc(C(=O)COC(=O)CNC(=O)C2CCCCC2)cc1`, the solubility kinetic rises from 4.1 µg/mL (≈ 12.5 µM) to 9.5 µg/mL (≈ 27.3 µM) (2.3-fold).

`c1ccc(Nc2ncnc3sccc23)cc1` and `COc1ccc(OC)c2nc(-c3ccncc3)ccc12` cannot be ordered by solubility kinetic: greater than 34.1 µg/mL for the first, greater than 39.9 µg/mL for the second.

`COC(=O)[C@H](CC(C)C)NC(=O)N1CCCCC1` and `CN(C(=O)c1ccc(N2CCCCC2)c([N+](=O)[O-])c1)C1CCS(=O)(=O)C1` (stereo not given) cannot be ordered by solubility kinetic: greater than 38.5 µg/mL for the first, greater than 57.2 µg/mL for the second.

Going from `COc1ccc(-c2csc(COC(=O)C(C)(C)C)n2)cc1` to `Cc1nc2ccc(NC(=O)c3ccc(=O)[nH]c3)cc2s1`, the solubility kinetic rises from less than 0.7 µg/mL to 13.7 µg/mL (≈ 48 µM).

Compared with `Br.CCCCCCCCCCn1ccc(=N)cc1`, `CCc1ccnc(NS(=O)(=O)c2ccc3c(c2)CCO3)c1` is lower in solubility kinetic: greater than 47.3 µg/mL for the first, 17.6 µg/mL (≈ 57.8 µM) for the second.
